Where two headings read alike, the source gives them in different places.
Experiments:
[1] = tested on: developing blood vessels of the chicken chorioallantoic membrane; experiment: Chicken chorioallantoic membrane (CAM) assay; type: in vivo; details: for inhibition of vessel formation: 10 µM on filter paper discs, end of incubation (6 h); for angiogenic parameters (vessel size, vessel length, number of vessel branches): 10 µM, angioquant software, compared to control
Method: Chicken chorioallantoic membrane (CAM) assay is a well-known in vivo angiogenesis assay. To confirm the anti-angiogenic properties of cobalt complexes 1 and 2, CAM assay was performed. The complexes 1 and 2, on incubation for […], produced excellent inhibitory activity on the developing blood vessels. […] Several angiogenic parameters such as vessel size, vessel length and number of vessel branches were quantified using angioquant software as practiced in an earlier study[77] and represented as bar diagram (Fig. 5). […] This trend is also in tune with the DNA binding ability and anti-cancer activity of the complexes 1 and 2.
The Institutional Animal Care and Use Committee, an Association of New England Medical Center and Tufts (IACUC) and the National Institute of Health, USA, had established that a chick embryo that has not reached the 14th day of its developmental period would not experience pain and can, therefore, be used for experimentation without any ethical restrictions or prior protocol approval[95]–[97]. The anti-angiogenic activity was investigated on adopting the Chicken chorioallantoic membrane (CAM) assay. Briefly, specific pathogen-free (SPF) fertile chicken eggs were obtained from a government poultry farm. The eggs were incubated at 37 °C in a humid atmosphere. On the 5th day of incubation, the shell was cautiously broken using forceps. Precautions were taken to prevent puncture of any of the blood vessels during the transfer. The stock solutions were prepared by dissolving the complexes 1 and 2 in DMSO and then diluted suitably with the corresponding buffer to the required concentrations for all the experiments. The final DMSO concentration never exceeded 0.1%. Sterile filter paper discs (6 mm dia) soaked in solution of complexes (10 µM) were placed in 3 different positions over the generating blood vessels. For the control experiments sterile filter paper disks (6 mm dia) soaked with 10 µM of 0.1% of DMSO in PBS were used. Images of blood vessels (i.e., 0 h) were taken using stereo microscope (Nexius Zoom). The eggs were aseptically transferred in a humidified incubator at 37 °C and images were captured after 6 h incubation.

[2] = tested on: monkey kidney epithelial cell Vero; experiment: MTT assay on Vero cells
Excerpt: The anti-proliferative property of the complexes 1 and 2 at different concentrations on A549 lung carcinoma cell and monkey kidney epithelial cell Vero was examined by adopting MTT assay (Fig. S7). […] The naked cobalt acetate and ligands salen and salophen were separately tested on A549 cells to understand if metal chelation is the principal basis of the anticancer activity of the complexes.
Culture: Human lung cancer cells (A549) were received from National Centre for Cell Science (NCCS) Pune, India. Vero cells were obtained from ATCC. The cells were grown at humidified atmosphere of 5% CO2 in an incubator at 37 °C (Forma, Thermo Scientific, USA) in DMEM medium (Invitrogen) containing 10% FBS (Sigma-Aldrich, St. Louis, Mo, USA), 100 μg/mL of penicillin and 100 μg/mL streptomycin were used as antibiotics (Himedia, Mumbai, India). […] The cells were seeded in 96 well plates (5000 A549 cells per well) and allowed to attach for 24 h. The cells were then incubated with different concentrations of the metal complexes 1 and 2 dissolved in 100% dimethyl sulfoxide (DMSO) (Sigma-Aldrich) and prepared to a final dilution of 0.02% of DMSO.
In the determination of IC50 value, 0.02% DMSO was used as the solvent control. After the end of incubation period (24 h), the medium was aspirated carefully and replaced with new medium. The formazan formed was dissolved in100 μL of 100% DMSO to each well. […]

CT-DNA [3] = experiment: Cyclic voltammetry in the absence and presence of CT-DNA; type: binding; details: absence of DNA, 0.5% DMSO/PBS, glassy carbon vs saturated calomel; for cathodic peak potential Epc: Co(III) to Co(II)
Method: Electrochemical studies of complexes 1 and 2 were recorded in 0.5% DMSO/PBS buffer solution, with glassy carbon as working electrode vs saturated calomel as reference electrode and Pt wire as auxiliary electrode. […] On addition of CT-DNA to each cobalt complex solution, no new peak appeared. […] The decrease in voltammetric current in the presence of CT- DNA is possibly due to the diffusion of the complexes 1 and 2 bound to the large, slowly diffusing DNA molecule[39],[40]. The positive shifts indicate that complexes 1 and 2 bind to DNA through intercalation as observed in the spectroscopic studies[39],[40].
For cyclic voltammetry experiments, the electrode surfaces were freshly polished with alumina powder and then sonicated in ethanol and distilled water for 1 min prior to each experiment and the electrode was rinsed with doubly distilled water thoroughly between each polishing step. Finally, each electrode was cleaned thoroughly in an ultrasonic cleaner again with doubly distilled water. Cyclic voltammetric experiments were performed at room temperature in […] in a single compartment cell with a three-electrode configuration, namely, glassy carbon working electrode, platinum wire auxiliary electrode and saturated calomel as reference electrode. Before experiments, all solutions were deaerated with dry nitrogen gas for 10 min to remove dissolved oxygen and kept in nitrogen atmosphere throughout the experiments.

CT-DNA [4] = experiment: Electronic absorption titration of the complexes with CT-DNA; type: binding; details: for intrinsic binding constant Kb: CT-DNA, plot of [DNA]/(εa−εf) vs [DNA]; for percentage of hypochromism (% H) / red shift: absorption spectra on incremental addition of CT-DNA
Method: The absorption spectra of the complexes 1 and 2 were measured in presence and absence of CT-DNA, and the results are shown in Fig. 2.
The value of DNA binding constant (Kb) of the complexes 1 and 2 were calculated using the equation[32], [DNA]/(εa−εf)=[DNA]/(ε0−εf)+1/Kb(ε0−εf) where [DNA] is the concentration of DNA expressed in base pairs; εa is called as apparent extinction coefficient which is determined by calculating Aobs/[complex], εf and ε0 are the apparent free and fully-bound cobalt(III) complex extinction coefficients.
The intrinsic binding constants Kb of complexes 1 and 2 were calculated from the plot of [DNA]/ (εa-εf) versus [DNA] the values are shown in Table 1. […] As both the complexes intercalated with DNA, it is expected that salicylaldehyde aromatic moiety is involved in the intercalation. […] This is due to the presence of additional aromatic phenyl ring in the salophen Schiff base ligand in complex 2 which enhanced stacking interaction between salicylaldehyde aromatic moiety and DNA bases.
Concentrated stock solution of DNA was prepared in PBS and sonicated for 25 cycles, where in each cycle consisted of 30 seconds with 1 min intervals. The DNA concentration per nucleotide was determined by electronic absorption spectroscopy using the known molar extinction coefficient value of 6600 M^−1 cm^−1 at 260 nm[79].
The stock solutions were prepared by dissolving the complexes 1 and 2 in an aqueous solution of DMSO as the co-solvent, and then diluted suitably with the corresponding buffer to the required concentrations for all the experiments. The final DMSO concentration never exceeded 0.5%. For absorption and emission spectral experiments, the DNA solutions were pre-treated with the solutions of metal complexes to ensure no change in the metal complex concentrations.
Absorption studies were performed by maintaining the constant concentration of both the complexes and varying the CT-DNA concentration. An equal amount of CT-DNA was added to the complexes and the reference solution to eliminate the absorbance of CT-DNA itself.

Compound	inhibition of vessel formation [1]	angiogenic parameters (vessel size, vessel length, number of vessel branches) [1]	concentration up to which no significant toxicity [2] [µM]	cathodic peak current ipc (CT-DNA [3])	cathodic peak potential Epc (CT-DNA [3]) [V]	intrinsic binding constant Kb (CT-DNA [4]) [M⁻¹]	percentage of hypochromism (% H) (CT-DNA [4]) [%]	red shift (CT-DNA [4]) [nm]	concentration up to which no significant toxicity ([2]; Vero cells, MTT) [µM]
CCCCCCCCCCCC[NH2+][Co-3]123([NH2+]CCCCCCCCCCCC)[O]c4ccccc4C=[N+]1CC[N+]2=Cc1ccccc1[O]3.[O-][Cl+3]([O-])([O-])[O-] [Complex 1, trans-[Co(salen)(DA)2](ClO4)]	profound inhibition of vessel formation	reduction in all of these parameters compared to control	> 150	−1.184 × 10^−5 A	−0.490	13100	31.54	10	–
CCCCCCCCCCCC[NH2+][Co-3]123([NH2+]CCCCCCCCCCCC)[O]c4ccccc4C=[N+]1c1ccccc1[N+]2=Cc1ccccc1[O]3.[O-][Cl+3]([O-])([O-])[O-] [Complex 2, trans-[Co(salophen)(DA)2](ClO4)]	profound inhibition of vessel formation	reduction in all of these parameters compared to control	–	−3.622 × 10^−6 A	−0.265	31500	36.81	13	> 150
